What is called IC50 is the midpoint of a concentration-inhibition curve. Low values mean greater potency in that assay, high ones weaker potency in that assay. The term melting point denotes the temperature of the solid-liquid transition.

Here are results for twelve molecules from PMC11396667, “Design, Synthesis, and Anticancer and Antibacterial Activities of Quinoline-5-Sulfonamides” (Molecules, 2024).

The structures appear in SMILES notation.

One data set has as its system S. aureus ATCC 29213. The experiment in a line: MTT assay of bacterial respiratory activity. It counts as cell-based, Staphylococcus aureus. Particulars: S. aureus ATCC 29213. From the text: The MTT assay can be used to assess cell growth by measuring respiration. Bacterial cell respiratory activity (which is ultimately reflected in their viability) of less than 70% after exposure to the MIC values for each test compound is considered as a positive result for this test. This low level of cellular oxidative metabolism indicates inhibition of cell growth by inhibition of respiration. The lowest multiples of the MIC values by which inhibition of S. aureus ATCC 29213 viability [%] greater than 70% was achieved are shown in Table 4. […] Therefore, the antibacterial activity of the discussed compounds cannot be explained solely on the basis of respiration inhibition, so it is very difficult to draw a conclusion regarding the actual mechanism of action, since 8-HQs are multi-target agents, i.e., they affect several different targets at once (as discussed in the section dedicated to anticancer activity), which subsequently leads to the death of the treated resistant microorganisms.
Compounds were prepared as previously stated and diluted in CaMH broth for S. aureus to achieve the desired final concentrations. S. aureus bacterial suspension in sterile distilled water at 0.5 McFarland was diluted 1:3. Inocula were added to each well by multi-inoculator. Diluted mycobacteria in broth free from inhibiting compounds were used as the growth control. All compounds were prepared in duplicate. Plates were incubated at 37 °C for 24 h for S. aureus. After the incubation period, 10% well volume of MTT (3-(4,5-dimethylthiazol-2-yl)-2,5-diphenyltetrazolium bromide) reagent (Sigma) was mixed into each well and incubated at 37 °C 1 h for S. aureus. Then, 100 µL of 17% sodium dodecyl sulphate in 40% dimethylformamide was added to each well. The plates were read at 570 nm. The absorbance readings from the cells grown in the presence of the tested compounds were compared with uninhibited cell growth to determine the relative percent inhibition. The percent inhibition was determined through MTT assay. The percent viability is calculated through the comparison of a measured value and that of the uninhibited control: % viability = OD570E/OD570P × 100, where OD570E is the reading from the compound-exposed cells, while OD570P is the reading from the uninhibited cells (positive control). Cytotoxic potential is determined by a percent viability of <70% [81, 82].
On the technique in general: Formazan colour is commonly taken as a measure of viable cells.

Data set [1] concerns C-32 (human amelanotic melanoma) cells. The experiment in a line: WST-1 cell viability assay, C-32. It counts as cell-based. Particulars: Homo sapiens; WST-1, 72 h exposure, ± SD, n = 6. As to the method: (§1) The synthesized compounds were tested using three cancer cell lines—human amelanotic melanoma (C-32), human breast adenocarcinoma (MDA-MB-231), and human lung adenocarcinoma (A549)—and, for comparison, normal human dermal fibroblasts (HFF-1). The WST-1 (water-soluble tetrazole salt) assay was used to evaluate the effect of the synthesized compounds on the viability of cultured cells.
(§2) Compounds were evaluated for their antiproliferative activity using three cultured cell lines: C-32 (human amelanotic melanoma, ATCC, Manassas, VA, USA), A549 (human lung adenocarcinoma, ATCC, Manassas, VA, USA), MDA-MB-231 (human breast adenocarcinoma derived from metastatic site: pleural effusion, ATCC, Manassas, VA, USA), together with HFF-1 (normal human dermal fibroblasts, ATCC, Manassas, VA, USA). The cultured cells were kept at 37 °C and 5% CO2.
(§3) Cells were seeded in 96-well plates at 5000/well in 100 μL of medium. After 24 h of incubation, the medium was replaced with a new one with the addition of the test substance. After 72 h, the following tests were performed: with crystal violet (determination of the number of adherent cells in the culture), the WST-1 test (determination of the relative number of living cells and their metabolic activity), and the LDH test (determination of the relative number of dead cells in cultures—cytotoxicity of the tested substance).
(§4) WST-1 test: The WST-1 test (Roche Diagnostics, Mannheim, Germany) allows one to determine the relative number of cells in cultures. Absorbance is directly proportional to the number of cells and their metabolic activity. The absorbance measurement is performed at λ = 450 nm (reference wave 600 nm).

Data set [2] has as its system A549 (human lung adenocarcinoma) cells. The data set can be described thus: WST-1 cell viability assay, A549. It counts as cell-based. Particulars: Homo sapiens, A549; WST-1, 72 h exposure, ± SD, n = 6. The method, then:
as §1, §2, §3, §4

For data set [3], the system named is MDA-MB-231 (human breast adenocarcinoma) cells. The data set can be described thus: WST-1 cell viability assay, MDA-MB-231. It is filed as cell-based. Particulars: Homo sapiens, MDA-MB-231; WST-1, 72 h exposure, ± SD, n = 6. As to the method: as §1, §2, §3, §4

Regarding `O=C(O)c1cn(C2CC2)c2cc(N3CCNCC3)c(F)cc2c1=O` [CPX, ciprofloxacin, reference compound], the “Conc.: lowest multiple of MIC with at least 70% inhibition of respiratory activity” value in the data set on S. aureus ATCC 29213 is 32 × MIC.
For `COc1ccc(S(=O)(=O)NC(C)(C)c2cn(Cc3ccccc3)nn2)c2cccnc12` [7f, N-[2-(1-Benzyl-1H-1,2,3-triazol-4-yl)propan-2-yl]-8-methoxyquinoline-5-sulfonamide], the melting point is 153 to 155 °C. The IC50 in data set [1] was over 100 µM. This molecule also returned an IC50 in data set [2] of over 100 µM. Further, the IC50 in data set [3] was over 100 µM.
On to `C#CCOc1cccc(NS(=O)(=O)c2ccc(OC)c3ncccc23)c1` [6e, 8-Methoxy-N-[3-(prop-2-yn-1-yloxy)phenyl]quinoline-5-sulfonamide], for which the melting point was in the range of 190 to 192 °C. The molecule also gave a half-inhibitory concentration (IC50) in data set [1] of 32.2 ± 4.8 µM. Besides, in data set [2], the half-maximal inhibitory concentration (IC50) is over 100 µM. The IC50 in data set [3] is over 100 µM.
Regarding `COc1ccc(S(=O)(=O)NCc2cn(CSc3ccccc3)nn2)c2cccnc12` [7e, N-({1-[(Phenylthio)methyl]-1H-1,2,3-triazol-4-yl}methyl)-8-methoxyquinoline-5-sulfonamide], the melting point was 205 to 207 °C. This molecule also returned an IC50 in data set [1] of over 100 µM. This molecule displayed an IC50 in data set [2] of over 100 µM. Moreover, the IC50 in data set [3] is 72.2 ± 3.6 µM.
`COc1ccc(S(=O)(=O)Nc2ccc(OCc3cn(Cc4ccccc4)nn3)cc2)c2cccnc12` [7h, N-{4-[(1-Benzyl-1H-1,2,3-triazol-4-yl)methoxy]phenyl}-8-methoxyquinoline-5-sulfonamide] came in with a melting point of 139 to 141 °C. In data set [1], this molecule registered an IC50 of over 100 µM. Moreover, in data set [2], the IC50 is over 100 µM. Moreover, the IC50 in data set [3] was over 100 µM.
`C#CCOc1ccc(NS(=O)(=O)c2ccc(OC)c3ncccc23)cc1` [6d, 8-Methoxy-N-[4-(prop-2-yn-1-yloxy)phenyl]quinoline-5-sulfonamide] showed a melting point of 217 to 219 °C. The IC50 in data set [1] turned out to be 86.4 ± 3.9 µM. Moreover, the IC50 in data set [2] was over 100 µM. Besides, the IC50 in data set [3] is over 100 µM.
Molecule `COc1ccc(S(=O)(=O)NCc2cn(Cc3ccc(F)cc3)nn2)c2cccnc12` [7c, N-{[1-(4-Fluorobenzyl)-1H-1,2,3-triazol-4-yl]methyl}-8-methoxyquinoline-5-sulfonamide] displayed a melting point of 194 to 196 °C. In addition, the IC50 in data set [1] turned out to be 89 ± 3.5 µM. The molecule further yielded an IC50 in data set [2] of over 100 µM. In data set [3], this molecule came in with an IC50 of over 100 µM.
In turn, `C#CC(C)(C)NS(=O)(=O)c1ccc(OC)c2ncccc12` [6b, 8-Methoxy-N-(1,1-dimethyloprop-2-yn-1-yl)quinoline-5-sulfonamide] registered a melting point of 217 to 219 °C. In addition, in data set [1], the IC50 turned out to be 40.6 ± 4.9 µM. The molecule further displayed an IC50 in data set [2] of over 100 µM. Besides, the IC50 in data set [3] was over 100 µM.
`C#CCN(C)S(=O)(=O)c1ccc(OC)c2ncccc12` [6c, 8-Methoxy-N-methyl-N-(prop-2-yn-1-yl)quinoline-5-sulfonamide] registered a melting point of 112 to 114 °C. The molecule also came in with an IC50 in data set [1] of 70.1 ± 8.4 µM. For the same molecule, the IC50 in data set [2] was over 100 µM. The IC50 in data set [3] was over 100 µM.
The molecule `COc1ccc(S(=O)(=O)NCc2cn(Cc3ccccc3)nn2)c2cccnc12` [7b, N-[(1-Benzyl-1H-1,2,3-triazol-4-yl)methyl]-8-methoxyquinoline-5-sulfonamide] returned a melting point of 170 to 172 °C. The IC50 in data set [1] is over 100 µM. The molecule also had an IC50 in data set [2] of over 100 µM. This molecule also showed an IC50 in data set [3] of over 100 µM.
`C#CCNS(=O)(=O)c1ccc(OC)c2ncccc12` [6a, 8-Methoxy-N-(prop-2-yn-1-yl)quinoline-5-sulfonamide]: the melting point was 161 to 163 °C. Moreover, the IC50 in data set [1] was over 100 µM. The molecule also gave an IC50 in data set [2] of over 100 µM. In data set [3], this molecule came in with an IC50 of over 100 µM.
On to `C#CCOc1ccccc1NS(=O)(=O)c1ccc(OC)c2ncccc12` [6f, 8-Methoxy-N-[2-(prop-2-yn-1-yloxy)phenyl]quinoline-5-sulfonamide], for which the melting point lay within 187 to 189 °C. For the same molecule, in data set [1], half-maximal inhibition (IC50) was put at 27.7 ± 2.2 µM. The molecule also came in with an IC50 in data set [2] of over 100 µM. The molecule further had an IC50 in data set [3] of over 100 µM.
